# Source: patent US20060199772A1, “Use of a proteasome inhibitor in the treatment of endothelial dysfunction and/or in a low-dose proteasome inhibitor therapy” (Charite'-Universitaetsmedizin Berlin, priority 2002, published 2006)
# “Also recorded” adds a separate entry of the source. Where a SMILES comes first, the peptide text is derived from it. The star is where a group is joined. Cbz = O=C(OCc1ccccc1)*
# What was measured:
# rat aortic rings = assay: Vasorelaxation studies in pretreated rat aortic rings (organ chamber); assay type: cell-based; conditions: 48 hours
# Description: Thoracic aortas from male Wistar rats were rapidly excised, cleaned of connective tissue, and cut into rings 2 to 3 mm in length for organ-chamber experiments. Rings were incubated with MG132 100 nmol/L, 250 nmol/L, or solvent, or TNF-α (250 pg/ml) in the presence and absence of 250 nM MG132, for 48 hours in MEM at 37° C. containing 50 U/mL penicillin, 50 μg/mL streptomycin, 0.1% BSA, and 1 μg/mL polymyxin B. The rings were then mounted on platinum hooks in 10 ml jacketed organ baths containing modified Krebs-Henseleit solution (composition in mmol/L: NaCl 144, KCl 5.9, CaCli 1.6, MgSO^4− 1.2, KH2PO4^− 1.2, NaHCO3^− 25, and D-glucose 11.1) and diclofenac 1 μmol/L. Tension was gradually adjusted to 2 g over 1 hour. The solution in the bath was kept at 37° C. with a gas mixture of […]. Following equilibration and submaximal precontraction with phenylephrine (0.05 μmol/L), relaxation to increasing concentrations (1 nmol/L to 1 μmol/L) of the endothelium-dependent vasodilator acetylcholine was performed to obtain cumulative concentration-response curves. Selected studies were conducted in rings treated with L-NAME (1 mmol/L) before phenylephrine exposure. Maintenance of smooth-muscle integrity following incubation with the proteasome inhibitor or solvent was confirmed by evaluation of endothelium-independent vasodilation to papaverine (1 nmol/L to 1 μmol/L).
# eNOS mRNA [1] = assay: eNOS mRNA levels by real-time RT-PCR in HUVECs, with or without TNF-α; assay type: cell-based, human; conditions: 48 hours
# Description: Purity of HU-VECs was assessed by von Willebrand factor staining. For experiments, cells were seeded onto 6-mm diameter dishes and were treated with either proteasome inhibitors MG132, MG262, with the non-proteasomal cathepsin inhibitor ALLM, or with solvent (DMSO) for the times and concentrations indicated. In some experiments, the transcription inhibitor α-amanitin (2.5 μg/mL) was pre-incubated one hour before addition of proteasome inhibitor. Cell viability was assessed by trypan blue exclusion. For HUVECs, the inventors used only second- to third-passage cells for all experiments.
# For eNOS expression in HUVECs, cells were treated with DMSO (control), TNF-α (1, 2.5 and 5 ng/ml) and TNF-α (same concentrations) in the presence of 70 nM MG132, for 48 hours, whereupon eNOS mRNA levels were measured (see Method 3).
# After treatment, cells were lysed in Trizol reagent (Gibco Life Technologies, Karlsruhe, Germany) and 800 ng of total RNA were reversed transcribed with random hexamers. Primer sequences were synthesized by TIB Molbiol (Berlin, Germany), and TaqMan probes by Eurogentec (Seraing, Belgium). […] The CT (threshold cycle) is defined as the number of cycles required for the fluorescence signal to exceed the detection threshold. The expression of the target gene relative to the housekeeping gene was calculated as the difference between the threshold values for the two genes.
# [2] = system: cultured neonatal rat cardiomyocytes; conditions: cited from earlier work
# eNOS mRNA [3] = assay: eNOS mRNA levels by real-time RT-PCR in CPAE cells; assay type: cell-based, bovine
# Description: (§1) The bovine pulmonary artery endothelial cell line (CPAE cells) was purchased from the American Type Culture Collection (ATCC, # CCL-209) and was cultured in MEM supplemented with 5% FCS, 1.5 g/L sodium bicarbonate, 0.11 g/L sodium pyruvate, 100 U/mL penicillin, and 100 μg/ml streptomycin. Human umbilical vein endothelial cells (HUVECs) were isolated and cultured as described previously (Stangl et al. Homocysteine inhibits TNF-α-induced endothelial adhesion molecule expression and monocyte adhesion via nuclear factor-κB dependent pathwas. Biochem Biophys Commun. 2001; 280:1093-1100). Purity of HU-VECs was assessed by von Willebrand factor staining. For experiments, cells were seeded onto […] dishes and were treated with either proteasome inhibitors MG132, MG262, with the non-proteasomal cathepsin inhibitor ALLM, or with solvent (DMSO) for the times and concentrations indicated. In some experiments, the transcription inhibitor α-amanitin (2.5 μg/mL) was pre-incubated one hour before addition of proteasome inhibitor. Cell viability was assessed by trypan blue exclusion. For HUVECs, the inventors used only second- to third-passage cells for all experiments. For phalloidin-DAPI double staining, cells were fixed with 4% paraformaldehyde, permeabilized with 1% Triton, and blocked with 1% FCS. The inventors took cell photos with a Zeiss camera and analysed them with Axiovert 3.0 software.
# After treatment, cells were lysed in Trizol reagent (Gibco Life Technologies, Karlsruhe, Germany) and 800 ng of total RNA were reversed transcribed with random hexamers. Primer sequences were synthesized by TIB Molbiol (Berlin, Germany), and TaqMan probes by Eurogentec (Seraing, Belgium). Table 1 summarizes the sequences of primers and probes used in this study. mRNA expression was standardized to the HPRT (hypoxanthine phosphoribosyl transferase) gene as a housekeeping gene, the transcription level of which were not influenced under our experimental conditions. PCR amplification was carried out in 25 μL TaqMan Universal PCR Master Mix (Perkin Elmer Applied Biosystems, Foster City, Calif.) containing either 0.3 or 0.9/μmol/L primer, 0.2/μmol/L TaqMan probe, and 1 μl of the reverse transcription reaction in a 5700 Sequence Detection System (Perkin Elmer Applied Biosystems). Thermal cycling conditions comprised an initial denaturation step at 95° C. for 10 minutes, followed by 95° C. for 15 seconds and 60° C. for 1 minute for 40 cycles. Size and purity of the amplification products were verified on a 20% PAA gel. The CT (threshold cycle) is defined as the number of cycles required for the fluorescence signal to exceed the detection threshold. The expression of the target gene relative to the housekeeping gene was calculated as the difference between the threshold values for the two genes.
# The SYBR Green method was applied for quantitative amplification of bovine eNOS mRNA. In our analysis with the transcription inhibitor α-amanitin—which blocks RNA polymerase II, whereas RNA polymerase I is insensitive to this toxin (Lindell T J et al. Specific inhibition of nuclear RNA polymerase II by alpha-amanitin. Science. 1970; 170: 447-449)—the inventors standardized eNOS mRNA expression to RP29 (ribosomal protein 29) gene as housekeeping gene. Thermal cycling conditions were identical to the TaqMan PCR.
# proteasome = assay: Accumulation of poly-ubiquitinylated proteins (anti-ubiquitin Western blot) in CPAE cells; assay type: cell-based, bovine
# Description: as §1
# (§2) After treatment, cells were washed twice with PBS and lysed in extraction buffer containing in mmol/L: Tris/HCl 50 (pH 7.4), KCl 154, glucose 5, EDTA 0.5, PMSF 1, DTT 2, and 1% Triton X-100. Total protein (50 μg per lane) was subjected to SDS-PAGE and membranes were probed with anti-eNOS monoclonal antibody (1:2500) or with anti-ubiquitin antibody (1:1000). Membranes were incubated with secondary anti-mouse antibody (1:2500) conjugated to alkaline phosphatase for eNOS or with anti-rabbit antibody conjugated to horseradish peroxidase (1:10000) for ubiquitin. Bands were visualized by using BCIP and Nitro Blue Tetrazolium (Sigma) for eNOS, and by employing the ECL detection system (Amersham) for ubiquitin.
# eNOS [4] = assay: eNOS activity, L-[3H]arginine to L-[3H]citrulline conversion in extracts of treated CPAE cells; assay type: cell-based, bovine
# Description: eNOS activity was assessed by the formation of L-[^3H]citrulline from L-[^3H]arginine after separation of the amino acids by cation exchange chromatography. Endothelial cells were washed with PBS and lysed in the same extraction buffer as for Western blot analysis. The inventors added 50 μg of total protein to the reaction mixture containing 50 mmol/L Hepes pH 7.4, 0.1% Triton X-100, 1 mmol/L EDTA, 1.25 mmol/L CaCl2, 1 mmol/L DTT, 1 μmol/L FAD, 15 μmol/L BH4, 1 mmol/L NADPH, and 1 μCi L-[^3H]arginine. Incubation was performed for 30 minutes at 37° C. Reactions were terminated by adding 0.5 ml of ice-cold Dowex (Na^+ form). L-[^3H]citrulline was separated from L-[^3H]arginine by Dowex chromatography, and L-[^3H]citrulline formation was quantified by liquid scintillation counting. The inventors subtracted the values obtained from samples incubated without cell extracts. […] In some samples, CaCl2 was omitted from the reaction buffer to exclude any contribution of inducible NO synthase (iNOS).
# eNOS [5] = assay: eNOS protein expression by Western blot in HUVECs; assay type: cell-based, human
# Description: as §1, with “For phalloidin-DAPI double staining, cells were fixed with 4% paraformaldehyde, permeabilized with 1% Triton, and blocked with 1% FCS.” left out, “software. […]” for “software.”
# CPAE cells = assay: Cell viability by trypan blue exclusion; assay type: cell-based, bovine
# Description: as §1, with “For phalloidin-DAPI double staining, cells were fixed with 4% paraformaldehyde, permeabilized with 1% Triton, and blocked with 1% FCS.” left out
# eNOS [6] = assay: eNOS protein expression by Western blot in CPAE cells; assay type: cell-based, bovine; conditions: for upregulation of eNOS protein (specificity comparison with MG132): equipotent doses
# Description: as §1, §2
# cardiomyocytes = conditions: cited from earlier work
# [7] = rat aortic rings pretreated 100 and 250 nmol/L
compound,measurement,setting,value
TNF-α,acetylcholine-dependent vasodilatation versus DMSO control,"rat aortic rings; rat aortic rings, 250 pg/ml",significantly reduced
same,eNOS mRNA expression versus DMSO control,"eNOS mRNA [1]; HUVECs, 1, 2.5 and 5 ng/ml",reduction and almost abolition of mRNA expression
"CC(C)C[C@@H](C=O)NC(=O)[C@H](CC(C)C)NC(=O)[C@H](CC(C)C)NC(=O)OCc1ccccc1 [MG132, N-carbobenzoxy-L-leucinyl-L-leucinyl-L-leucinal] (Cbz-Leu-Leu-Leu-aldehyde)","maximum relaxation to acetylcholine, percentage of phenylephrine precontraction",rat aortic rings; rat aortic rings pretreated 250 nmol/L,89.4±5.7%
same,endothelial-independent vasorelaxation in response to papaverine,rat aortic rings; [7],remained unaffected
same,endothelium-dependent relaxation to acetylcholine,rat aortic rings; [7],significantly enhanced
same,vasoreactivity to acetylcholine of TNF-α-damaged aortic rings,"rat aortic rings; rat aortic rings, 250 nM with TNF-α 250 pg/ml",vasoreactivity can be significantly improved
same,spontaneous beating time of cardiomyocytes at 46° C.,"[2]; 1 μM, control hyperthermia 5+/−2 min",28 ± 5 min
same,induction of heat shock proteins at mRNA and protein levels,[2],time- and concentration-dependently induced Hsp72 and Hsp32
same,time at which upregulation of eNOS mRNA begins,eNOS mRNA [3],16 h
same,time at which eNOS mRNA is still elevated after a single dose,eNOS mRNA [3]; 100 nmol/L single dose,7 days
same,"maximum eNOS mRNA level, times the control level","eNOS mRNA [3]; 100 nmol/L, 24 hours",6.5 times the control level
same,MG132-induced increase in eNOS mRNA after α-amanitin pretreatment,eNOS mRNA [3]; α-amanitin pretreatment 1 hour,without eliminating the increase in mRNA levels induced by MG132
same,concentration from which poly-ubiquitinylated proteins accumulate,proteasome,≥ 50 nmol/L
same,proteasome inhibition at 20 nmol/L,proteasome; 20 nmol/L,had no proteasomal inhibitory influence
same,time for which poly-ubiquitinylated proteins are detectable after a single dose,proteasome; 100 nmol/L single dose,three
same,accumulation of poly-ubiquitinylated proteins,proteasome; 50 to 250 nmol/L,led to accumulation of poly-ubiquitinylated proteins
same,time at which the increase in eNOS activity begins,eNOS [4],24 h
same,duration of enhanced eNOS enzyme activity after a single dose,eNOS [4]; 100 nmol/L single dose,up to 10 days
same,eNOS protein expression in HUVECs,eNOS [5],dose-dependent increase in eNOS
same,toxic doses by trypan blue exclusion,CPAE cells,higher than 250 nmol/L
same,effect on eNOS expression at 20 nmol/L,eNOS [6]; 20 nmol/L,did not affect eNOS expression
same,time from which eNOS upregulation is significant,eNOS [6]; 50 nmol/L,24 h
same,duration of enhanced eNOS protein after a single dose,eNOS [6]; 100 nmol/L single dose,up to 10 days
same,effect on eNOS protein levels at higher concentrations,eNOS [6]; 500 nmol/L and above,decreased eNOS protein levels
same,effect on eNOS protein levels at low concentrations,eNOS [6]; 50 to 250 nmol/L,gradually increased eNOS protein levels
same,time at which the rise of eNOS protein expression began,eNOS [6]; incubation with single dose,16 h
same,eNOS protein expression versus control,"eNOS [6]; single dose 100 nmol/L, 48 hours",2.4 fold
same,eNOS mRNA expression in presence of TNF-α versus TNF-α alone,"eNOS mRNA [1]; HUVECs, 70 nM with TNF-α 1, 2.5, 5 ng/ml",substantially increased expression of eNOS mRNA
same,protective effects at concentrations of less than 1 μM,cardiomyocytes,did not exhibit protective effects
CC[C@H](C)[C@@H]1NC(=O)CNC(=O)[C@@H]2Cc3c([nH]c4cc(O)ccc34)[S+]([O-])C[C@@H](NC(=O)CNC1=O)C(=O)N[C@@H](CC(N)=O)C(=O)N1C[C@H](O)C[C@H]1C(=O)N[C@@H]([C@@H](C)[C@@H](O)CO)C(=O)N2 (stereo in doubt) [α-amanitin],effect on overall eNOS mRNA levels,"eNOS mRNA [3]; 2.5 μg/mL, pre-incubated 1 hour",reduced overall eNOS mRNA levels
CC(C)C[C@H](NC(=O)[C@H](CC(C)C)NC(=O)[C@H](CC(C)C)NC(=O)OCc1ccccc1)B(O)O [MG262],upregulation of eNOS protein (specificity comparison with MG132),eNOS [6],also upregulates eNOS; also recorded: Comparable results; also recorded: induced upregulation of eNOS protein to an extent similar to that caused by MG132
"CSCC[C@@H](C=O)NC(=O)[C@H](CC(C)C)NC(=O)[C@H](CC(C)C)NC(C)=O [ALLM, N-acetyl-leucyl-leucyl-methioninal] (Ac-Leu-Leu-Met-aldehyde)","proteasome inhibition (poly-ubiquitinylated proteins), comparison with MG132",proteasome; corresponding doses,failed to inhibit the proteasome
same,upregulation of eNOS protein (specificity comparison with MG132),eNOS [6],had no effect; also recorded: failed to upregulate eNOS
